# Source: US9919998B2, “Antibacterial agents: Nα-aroyl-N-aryl-phenylalaninamides” (priority 2014, dated 2018)
# Legend:
# Type in all cases: cell-based
# [1] = system: Mycobacterium avium ATCC 25291; assay: Microplate Alamar Blue assay (MABA) MIC, M. avium; settings: ATCC25291, M. avium ATCC 25291
# Excerpt: (§1) Minimal inhibitory concentrations (MICs) in Mycobacterium tuberculosis H37Rv and Mycobacterium avium ATCC 25291 were quantified using microplate Alamar Blue assays as described (MABA; [Collins, L. & Franzblau, S. (1997) Microplate Alamar Blue assay versus BACTEC 460 system for high-throughput screening of compounds against Mycobacterium tuberculosis and Mycobacterium avium. Antimicrob. Agents Chemother. 41, 1004-1009]).
# [2] = system: Mycobacterium tuberculosis H37Rv; assay: Microplate Alamar Blue assay (MABA) MIC, M. tuberculosis; settings: read-out: MIC Mycobacterium tuberculosis H37Rv
# Excerpt: as §1
# [3] = system: Mycobacterium smegmatis ATCC 19420; assay: Broth microdilution MIC, M. smegmatis; settings: Mycolicibacterium smegmatis, ATCC19420, M. smegmatis ATCC 19420; read-out: MIC Mycobacterium smegmatis ATCC 19420
# Excerpt: MICs in Mycobacterium smegmatis ATCC 19420 and Mycobacterium smegmatis ATCC 19420 derivatives were quantified using broth microdilution assays as described [Clinical and Laboratory Standards Institute (CLSI/NCCLS) (2009) Methods for Dilution Antimicrobial Susceptibility Tests for Bacteria That Grow Aerobically; Approved Standard, Eighth Edition. CLIS Document M07-A8 (CLIS, Wayne Pa.)].
# [4] = system: Vero E6 ATCC CRL1586 cells; assay: Mammalian-cell cytotoxicity, minimal cytotoxic concentration (CellTiter96)
# Experimental: Minimal cytotoxic concentrations (MCCs) against mammalian cells in culture were determined using Vero E6 ATCC CRL1586 cells and the CellTiter96 assay kit (Promega, Inc.). […]
SMILES,MIC [1] [µg/mL],MIC [2] [µg/mL],MIC [3] [µg/mL],MCC mammalian cells Vero E6 ATCC CRL1586 [4] [µg/mL]
"Cc1ccc(Cl)cc1NC(=O)C(Cc1ccc(O)cc1)NC(=O)c1cccs1 (stereo not drawn) [IX-94, N-(1-((5-chloro-2-methylphenyl)amino)-3-(4-hydroxyphenyl)-1-oxopropan-2-yl)thiophene-2-carboxamide]",3.12,3.12,0.78,58
"O=C(NC(Cc1ccccc1)C(=O)Nc1cccc2cc[nH]c12)c1ccccc1Cl (stereo not drawn) [IX-95, N-(1-((1H-indol-7-yl)amino)-1-oxo-3-phenylpropan-2-yl)-2-chlorobenzamide]",25,12.5,0.39,20
"O=C(NC(Cc1ccccc1)C(=O)Nc1cccc2cc[nH]c12)c1ccccc1F (stereo not drawn) [IX-96, N-(1-((1H-indol-7-yl)amino)-1-oxo-3-phenylpropan-2-yl)-2-fluorobenzamide]",25,12.5,0.78,44
"Cc1ccccc1C(=O)NC(Cc1ccccc1)C(=O)Nc1cccc2cc[nH]c12 (stereo not drawn) [IX-97, N-(1-((1H-indol-7-yl)amino)-1-oxo-3-phenylpropan-2-yl)-2-methylbenzamide]",12.5,6.25,0.39,15
"O=C(NC(Cc1ccccc1)C(=O)Nc1cccc2c1OCO2)c1cccs1 (stereo not drawn) [IX-98, N-(1-(benzo[d][1,3]dioxol-4-ylamino)-1-oxo-3-phenylpropan-2-yl)thiophene-2-carboxamide]",3.12,6.25,0.195,13
"O=C(NC(Cc1ccccc1)C(=O)Nc1cccc2c1OCO2)c1ccccc1F (stereo not drawn) [IX-99, N-(1-(benzo[d][1,3]dioxol-4-ylamino)-1-oxo-3-phenylpropan-2-yl)-2-fluorobenzamide]",6.25,3.12,0.195,>100
"O=C(NC(Cc1ccccc1)C(=O)Nc1ccccc1OC(F)F)c1cccs1 (stereo not drawn) [IX-100, N-(1-((2-(difluoromethoxy)phenyl)amino)-1-oxo-3-phenylpropan-2-yl)thiophene-2-carboxamide]",6.25,6.25,0.39,42
"O=C(NC(Cc1ccccc1)C(=O)Nc1ccccc1OC(F)F)c1ccccc1F (stereo not drawn) [IX-101, N-(1-((2-(difluoromethoxy)phenyl)amino)-1-oxo-3-phenylpropan-2-yl)-2-fluorobenzamide]",6.25,6.25,0.39,>100
"Cc1ccc(Br)cc1NC(=O)C(Cc1ccc(O)cc1)NC(=O)c1ccccc1 (stereo not drawn) [IX-103, N-(1-((5-bromo-2-methylphenyl)amino)-3-(4-hydroxyphenyl)-1-oxopropan-2-yl)benzamide]",12.5,12.5,0.78,62
"O=C(NC(Cc1ccccc1)C(=O)Nc1cccc2[nH]ccc12)c1cccs1 (stereo not drawn) [IX-104, N-(1-((1H-indol-4-yl)amino)-1-oxo-3-phenylpropan-2-yl)thiophene-2-carboxamide]",50,25,0.39,33
"O=C(NC(Cc1ccccc1)C(=O)Nc1ccccc1N1CCCC1)c1cccs1 (stereo not drawn) [IX-105, N-(1-oxo-3-phenyl-1-((2-(pyrrolidin-1-yl)phenyl)amino)propan-2-yl)thiophene-2-carboxamide]",25,6.25,0.78,>100
"COc1cccc(NC(=O)C(Cc2ccccc2)NC(=O)c2cccs2)c1C (stereo not drawn) [IX-107, N-(1-((3-methoxy-2-methylphenyl)amino)-1-oxo-3-phenylpropan-2-yl)thiophene-2-carboxamide]",50,> 50,0.78,>100
"COc1cccc(NC(=O)C(Cc2ccccc2)NC(=O)c2ccccc2F)c1C (stereo not drawn) [IX-108, 2-fluoro-N-(1-((3-methoxy-2-methylphenyl)amino)-1-oxo-3-phenylpropan-2-yl)benzamide]",25,12.5,0.78,80
"Cc1ccccc1C(=O)NC(Cc1ccccc1)C(=O)Nc1cc(F)ccc1OCF (stereo not drawn) [IX-111, N-(1-((5-fluoro-2-(fluoromethoxy)phenyl)amino)-1-oxo-3-phenyl-propan-2-yl)-2-methylbenzamide]",0.78,0.39,0.39,100
"O=C(NC(Cc1ccccc1)C(=O)Nc1ccccc1OC(F)F)c1ccccc1Cl (stereo not drawn) [IX-119, 2-chloro-N-(1-((2-(difluoromethoxy)phenyl)amino)-1-oxo-3-phenylpropan-2-yl)benzamide]",12.5,3.12,0.39,5.6
"Cc1ccccc1C(=O)NC(Cc1ccccc1)C(=O)Nc1ccccc1OC(F)F (stereo not drawn) [IX-120, N-(1-((2-(difluoromethoxy)phenyl)amino)-1-oxo-3-phenylpropan-2-yl)-2-methylbenzamide]",3.12,3.12,0.19,>100
"O=C(NC(Cc1ccccc1)C(=O)Nc1cccc2c1OC(F)(F)O2)c1ccccc1F (stereo not drawn) [IX-122, N-(1-((2,2-difluorobenzo[d][1,3]dioxol-4-yl)amino)-1-oxo-3-phenyl-propan-2-yl)-2-fluorobenzamide]",> 50,> 50,1.56,94
"O=C(NC(Cc1ccccc1)C(=O)Nc1cccc2c1OC(F)(F)O2)c1cccs1 (stereo not drawn) [IX-124, N-(1-((2,2-difluorobenzo[d][1,3]dioxol-4-yl)amino)-1-oxo-3-phenyl-propan-2-yl)thiophene-2-carboxamide]",> 50,> 50,0.78,38
"O=C(NC(Cc1ccccc1)C(=O)Nc1cccc2[nH]ncc12)c1ccccc1F (stereo not drawn) [IX-128, N-(1-((1H-indazol-4-yl)amino)-1-oxo-3-phenylpropan-2-yl)-2-fluorobenzamide]",25,12.5,0.39,58
"O=C(NC(Cc1ccccc1)C(=O)Nc1ccccc1N1CCSCC1)c1ccccc1 (stereo not drawn) [IX-149, N-(1-oxo-3-phenyl-1-((2-thiomorpholinophenyl)amino)propan-2-yl)-benzamide]",> 50,3.12,0.095,>100
"O=C(NC(Cc1ccccc1)C(=O)Nc1ccccc1N1CCNCC1)c1ccccc1 (stereo not drawn) [IX-150, N-(1-oxo-3-phenyl-1-((2-(piperazin-1-yl)phenyl)amino)propan-2-yl)-benzamide]",3.12,6.25,0.39,38
"CN1CCN(c2ccccc2NC(=O)C(Cc2ccccc2)NC(=O)c2ccccc2)CC1 (stereo not drawn) [IX-151, N-(1-((2-(4-methylpiperazin-1-yl)phenyl)amino)-1-oxo-3-phenyl-propan-2-yl)benzamide]",12.5,12.5,0.78,35
"O=C(NC(Cc1ccccc1)C(=O)Nc1ccccc1N1CCOCC1)c1ccccc1F (stereo not drawn) [IX-152, 2-fluoro-N-(1-((2-morpholinophenyl)amino)-1-oxo-3-phenylpropan-2-yl)benzamide]",3.12,1.56,0.073,90
"Cc1ccccc1C(=O)NC(Cc1ccccc1)C(=O)Nc1ccccc1N1CCOCC1 (stereo not drawn) [IX-153, 2-methyl-N-(1-((2-morpholinophenyl)amino)-1-oxo-3-phenylpropan-2-yl)benzamide]",1.56,0.78,0.036,84
"O=C(NC(Cc1ccc(O)cc1)C(=O)Nc1ccccc1N1CCOCC1)c1ccccc1 (stereo not drawn) [IX-154, N-(3-(4-hydroxyphenyl)-1-((2-morpholinophenyl)amino)-1-oxo-propan-2-yl)benzamide]",1.56,1.56,0.095,>100
"O=C(NC(Cc1ccc(O)cc1)C(=O)Nc1ccccc1N1CCOCC1)c1ccccc1F (stereo not drawn) [IX-155, 2-fluoro-N-(3-(4-hydroxyphenyl)-1-((2-morpholinophenyl)amino)-1-oxopropan-2-yl)benzamide]",12.5,1.56,0.195,77
"Cc1ccccc1C(=O)NC(Cc1ccc(O)cc1)C(=O)Nc1ccccc1N1CCOCC1 (stereo not drawn) [IX-156, N-(3-(4-hydroxyphenyl)-1-((2-morpholinophenyl)amino)-1-oxopropan-2-yl)-2-methylbenzamide]",3.12,1.56,0.095,81
